The test system of experiment [1] is paclitaxel-induced peripheral nerve disorder rats. Description: Single intraperitoneal administration, hyperalgesia induced by paclitaxel (von Frey test). In kind it is in vivo. Conditions: Rattus norvegicus, ip, single i.p. dose 0.3 mg/kg, higher of the values after 1 hour and 5 hours, read-out: Recovery rate of 50% reaction threshold value (%). The protocol:
Male SD rats in six weeks age (one group comprised six rats) were used as experimental animals and the paclitaxel-induced peripheral nerve disorder rats were prepared in the same manner as in the above 1.[1](2). The test drug was administered intraperitoneally in a single dose so as to make it 0.3 mg/kg in any of the cases during the period of 18 to 25 days or 20 to 27 days after initiation of administration of paclitaxel.
A von Frey test was conducted in the same manner as in the above 1.[1](4) using the rats mentioned in the above (1) and each 50% reaction threshold value was measured. With regard to the higher 50% reaction threshold value between the 50% reaction threshold values after 1 hour and 5 hours from administration of a test drug, a recovery rate (%) of the 50% reaction threshold value was calculated.
Recovery rate (%) of 50% reaction threshold value={[(50% reaction threshold value after 1 hour or 5 hours from administration of test drug)−(50% reaction threshold value before administration of test drug)]÷[(Normal threshold value)−(50% reaction threshold value before administration of test drug)]}×100

Experiment [2] shares this test system. Briefly: Repeated intraperitoneal administration, hyperalgesia by paclitaxel (von Frey test). Conditions: prophylactic i.p. 0.50 mg/kg/day, paclitaxel; male SD rats. In kind it is in vivo, rat. The protocol:
With regard to male SD rats of six weeks age used as the experimental animals, their 50% reaction threshold values to the mechanical stimulus (the measuring method will be mentioned later) and body weights were measured and then the following seven groups each comprising eight rats was organized. • Normal control group • Onset control group • Prophylactic administration group with 0.25 mg/kg/day of a test drug • Prophylactic administration group with 0.50 mg/kg/day of a test drug • Therapeutic administration group with 0.25 mg/kg/day of a test drug • Therapeutic administration group with 0.50 mg/kg/day of a test drug • Therapeutic administration group with 30 mg/kg/day of gabapentin (positive control)
Taxol (registered trademark) injection 30 mg (manufactured by Bristol-Myers Squibb) containing 6 mg/mL of paclitaxel was used. To the rats of each of the above groups except the normal control group was intraperitoneally administered paclitaxel diluted to 2 mg/mL with saline in a dose of 2 mg/kg four times every other day whereupon the paclitaxel-induced peripheral nerve disorder rats were prepared. To the normal control group, an equivalent mixture of ethanol and Cremophor EL (registered trademark; manufactured by Sigma; a solvent for Taxisol (registered trademark) injection) diluted with saline to an extent of 3-fold was administered similarly.
To prophylactic administration groups of a test drug, the compound 4 in a dose of 0.25 mg/kg/day or 0.50 mg/kg/day was repeatedly administered intraperitoneally since immediately after initiation of administration of paclitaxel until 13 days thereafter. Meanwhile, to therapeutic administration groups of a test drug and to a therapeutic administration group of gabapentin, the compound 4 in a dose of 0.25 mg/kg/day or 0.50 mg/kg/day or gabapentin in a dose of 30 mg/kg/day, respectively was repeatedly administered intraperitoneally during the period of from 14 days to 42 days after initiation of the administration of paclitaxel.
The seven groups of rats of the above (1) were placed in a transparent acrylic cage with a wire-meshed floor and habituated for about three minutes and the 50% reaction threshold values to the mechanical stimulus of right hind limb were measured after 3, 7, 14, 21, 28, 35 and 42 days from initiation of the administration of paclitaxel. Incidentally, during the period of administration of a test drug, its values were measured after 24 hours from the last administration of a test drug.
The measurement was conducted using von Frey filaments (manufactured by North Coast Medical Inc.) in accordance with the methods of Chaplan, et al. (Journal of Neuroscience Methods, vol. 53, no. 1, pages 55 to 63, 1994) and Dixon, et al. (Annual Review of Pharmacology and Toxicology, vol. 20, pages 441 to 462, 1980). […] The case where the rat escaped at the instance of removing the filament was also called positive. When the positive reaction was noted, stimulus was conducted similarly using a filament of one rank weaker while, when no reaction was noted, stimulus was conducted similarly using a filament of one rank stronger and the point when the reaction changed from negative to positive or from positive to negative was called the first two reactions. […] A 50% reaction threshold value to the mechanical stimulus was measured using the reaction to the six stimuli in total and then (mean value) ± (standard error) for each group was calculated. […]

As to `CCCCCCC/C=C/C(=O)OC` [Compound 3, Trans-2-decenoic acid methyl ester], in experiment [1], the inhibition in vivo at 0.3 mg/kg was 63.2%.
`CCCCCCCCCC(=O)OCC` [Compound 2, Decanoic acid ethyl ester]: the inhibition in vivo at 0.3 mg/kg in experiment [1] stood at 22.9%.
Still for that read-out and setting: to `C=CCCCCCCCC(=O)OCC` [Compound 22, Trans-9-decenoic acid ethyl ester] belongs 67.9%; to `CCCCCCC/C=C/C(=O)OC1CCCCC1` [Compound 18, Trans-2-decenoic acid cyclohexyl ester], 15.8%; to `CCCCCC/C=C/CC(=O)OCC` [Compound 20, Trans-3-decenoic acid ethyl ester], 14.7%.
Same read-out and setting: to `CCCCCCC/C=C/C(=O)OCCC` [Compound 5, Trans-2-decenoic acid propyl ester] belongs 71.2%; to `CCCCCCC/C=C/C(=O)OCCCCCCC` [Compound 12, Trans-2-decenoic acid heptyl ester], 21.3%; to `CCCCCCC/C=C/C(=O)OCCCCCCCCCC` [Compound 14, Trans-2-decenoic acid decyl ester], 32.2%.
Same read-out and setting: to `CCCCCCC/C=C/C(=O)OC(C)(C)C` [Compound 10, Trans-2-decenoic acid tert-butyl ester] belongs 50%.
As for `CCCCCCC/C=C/C(=O)O` [trans-2-decenoic acid, reference compound], the “50% reaction threshold values to the mechanical stimulus vs onset control group” value in experiment [2] was “no difference from the onset control group”.
`C=CCCCCCCCCOC(=O)/C=C/CCCCCCC` [Compound 17, Trans-2-decenoic acid trans-9-decenyl ester]: the inhibition in vivo at 0.3 mg/kg in experiment [1] is 54%.
The same measure, in the same setting: to `CCCCCCC/C=C/C(=O)OC(C)C` [Compound 6, Trans-2-decenoic acid isopropyl ester] belongs 10.2%; to `CCCCCCC/C=C/C(=O)OCCCCCC` [Compound 11, Trans-2-decenoic acid hexyl ester], 60.8%; to `CCCCCCC/C=C/C(=O)OCCCC` [Compound 7, Trans-2-decenoic acid butyl ester], 22.7%.
Regarding `CCCCCCC/C=C/COC(=O)/C=C/CCCCCCC` [Compound 16, Trans-2-decenoic acid trans-2-decenyl ester], the inhibition in vivo at 0.3 mg/kg in experiment [1] stood at 94.4%.
